Measured values as given in ChEMBL document CHEMBL2169878 (J Med Chem, 2012).
The source made the active and inactive calls. The rule behind the calls is not given here.

Assays:
Heart [1] = assay: Cardiotoxicity against Sprague-Dawley rat Langendorff perfused heart assessed as atrioventricular conduction time at 1 uM by electrophysiological analysis (reference value: 42.67 2.29 ms); assay type: toxicity, tissue-based
Plasmodium berghei [2] = assay: Antimalarial activity against Plasmodium berghei ANKA expressing GFP infected in mouse assessed as cure from infection at 30 mg/kg, po administered QD for 3 days measured on day 30; assay type: functional, organism-based; design: dose 30 mg/kg
[3] = Cytotoxicity against human HepG2 cells after 24 hrs by neutral red dye uptake assay; assay type: cell-based; settings: read-out: TC50
[4] = (§1) Cardiotoxicity against Sprague-Dawley rat Langendorff perfused heart assessed as reduction in left ventricular pressure by electrophysiological analysis; assay type: toxicity, tissue-based; settings: Sprague-Dawley, Langendorff perfused heart
Heart [5] = assay: as §1; assay type: toxicity, tissue-based
Heart [6] = assay: Cardiotoxicity against Sprague-Dawley rat Langendorff perfused heart assessed as QTc time interval at 0.1 uM by electrophysiological analysis (reference value: 145.78 10.53 ms); assay type: toxicity, tissue-based
Salmonella typhimurium [7] = assay: Mutagenicity against Salmonella typhimurium TA98 assessed as revertants at 24 uM incubated for 90 mins followed by drug washout measured after 2 days relative to positive control; assay type: toxicity, organism-based; settings: salmonella enterica subsp. enterica serovar typhimurium, 1.5 h
Plasmodium falciparum [8] = assay: Antiplasmodial activity against chloroquine-sensitive Plasmodium falciparum NF54 infected in human erythrocytes assessed as inhibition of [3H]hypoxanthine incorporation incubated for 48 hrs prior to [3H]hypoxanthine addition measured after 48 hrs by liquid scintillation counting; assay type: functional, organism-based
Heart [9] = assay: Cardiotoxicity against Sprague-Dawley rat Langendorff perfused heart assessed as QT time interval at 10 uM by electrophysiological analysis (reference value: 73.01 4.52 ms); assay type: toxicity, tissue-based
Heart [10] = assay: Cardiotoxicity against Sprague-Dawley rat Langendorff perfused heart assessed as cycle length time at 1 uM by electrophysiological analysis (reference value: 258.62 8.87 ms); assay type: toxicity, tissue-based
[11] = Clearance in CD1 albino mouse at 50 mg/kg, po; assay type: ADME, organism-based; design: dose 50 mg/kg, route oral; settings: in vivo
Heart [12] = assay: Cardiotoxicity against Sprague-Dawley rat Langendorff perfused heart assessed as intraventricular conduction time at 30 uM by electrophysiological analysis (reference value: 13.92 0.42 ms); assay type: toxicity, tissue-based
Heart [13] = assay: Cardiotoxicity against Sprague-Dawley rat Langendorff perfused heart assessed as QT time interval at 0.1 uM by electrophysiological analysis (reference value: 73.01 4.52 ms); assay type: toxicity, tissue-based
Heart [14] = assay: Cardiotoxicity against Sprague-Dawley rat Langendorff perfused heart assessed as cycle length time at 30 uM by electrophysiological analysis (reference value: 258.62 8.87 ms); assay type: toxicity, tissue-based
[15] = target: T1, Chloroquine resistance transporter (Plasmodium falciparum) (UniProt Q9N623); assay: Inhibition of chloroquine-resistant Plasmodium falciparum Dd2 CRT expressed in Xenopus laevis oocyte assessed as inhibition of [3H]chloroquine uptake at 100 uM measured from 1 to 2 hrs
T1 sequence (whole entry): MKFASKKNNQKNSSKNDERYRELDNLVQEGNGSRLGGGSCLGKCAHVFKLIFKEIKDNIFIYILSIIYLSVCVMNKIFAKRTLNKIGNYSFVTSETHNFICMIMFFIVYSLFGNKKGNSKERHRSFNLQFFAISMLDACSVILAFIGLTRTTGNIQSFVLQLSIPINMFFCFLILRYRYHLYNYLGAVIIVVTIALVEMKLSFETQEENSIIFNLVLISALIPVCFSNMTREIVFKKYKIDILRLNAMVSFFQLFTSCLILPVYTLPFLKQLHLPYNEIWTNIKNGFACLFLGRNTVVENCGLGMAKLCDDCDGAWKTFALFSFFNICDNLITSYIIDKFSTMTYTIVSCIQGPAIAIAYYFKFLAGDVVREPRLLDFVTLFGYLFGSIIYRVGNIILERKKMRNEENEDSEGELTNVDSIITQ

Heart [16] = assay: Cardiotoxicity against Sprague-Dawley rat Langendorff perfused heart assessed as PQ prolongation-induced atrioventricular block at 30 uM by electrophysiological analysis; assay type: toxicity, tissue-based
Plasmodium berghei [17] = assay: Antimalarial activity against Plasmodium berghei ANKA expressing GFP infected in mouse assessed as cure from infection at 50 mg/kg, po administered QD for 3 days measured on day 30; assay type: functional, organism-based; design: dose 50 mg/kg
Salmonella typhimurium [18] = assay: Mutagenicity against Salmonella typhimurium TA100 assessed as revertants at 24 uM incubated for 90 mins followed by drug washout measured after 2 days relative to positive control; assay type: toxicity, organism-based; settings: salmonella enterica subsp. enterica serovar typhimurium
[19] = Inhibition of beta hematin formation assessed as molar equivalent of the compound required to inhibit 50 % beta-hematin formation after 18 hrs by spectrophotometric microassay relative to hemin; assay type: functional
Heart [20] = assay: Cardiotoxicity against Sprague-Dawley rat Langendorff perfused heart assessed as cycle length time at 0.1 uM by electrophysiological analysis (reference value: 258.62 8.87 ms); assay type: toxicity, tissue-based
[21] = Elimination half life in CD1 albino mouse plasma at 50 mg/kg, po measured from 6 to 48 hrs post-dosing; assay type: ADME, organism-based; design: dose 50 mg/kg, route oral; settings: read-out: beta t1/2 (converted)
Plasmodium falciparum [22] = assay: Antiplasmodial activity against chloroquine-sensitive Plasmodium falciparum D10 infected in human RBC after 72 hrs by parasite lactate dehydrogenase assay; assay type: functional, organism-based; settings: D10, 72 h
Heart [23] = assay: Cardiotoxicity against Sprague-Dawley rat Langendorff perfused heart assessed as atrioventricular conduction time at 30 uM by electrophysiological analysis (reference value: 42.67 2.29 ms); assay type: toxicity, tissue-based
Heart [24] = assay: Cardiotoxicity against Sprague-Dawley rat Langendorff perfused heart assessed as QTc time interval at 30 uM by electrophysiological analysis (reference value: 145.78 10.53 ms); assay type: toxicity, tissue-based
Plasmodium berghei [25] = assay: Antimalarial activity against Plasmodium berghei ANKA expressing GFP infected in mouse assessed as cure from infection at 30 mg/kg, po administered at 6,24,48 and 72 hrs post-infection measured on day 30; assay type: functional, organism-based; design: dose 30 mg/kg
[26] = Elimination half life in CD1 albino mouse liver at 50 mg/kg, po; assay type: ADME, organism-based; design: dose 50 mg/kg, route oral; settings: read-out: beta t1/2 (converted)
Plasmodium berghei [27] = assay: Antimalarial activity against Plasmodium berghei ANKA expressing GFP infected in mouse assessed as mean survival days at 30 mg/kg, po administered 24 hrs post-infection (reference value: 6 to 7 days); assay type: functional
[28] = Ratio of drug uptake in blood to plasma in CD1 albino mouse; assay type: ADME; settings: whole blood and plasma
Salmonella typhimurium [29] = assay: Mutagenicity against Salmonella typhimurium TA98 assessed as revertants at 1.5 uM incubated for 90 mins followed by drug washout measured after 2 days relative to positive control; assay type: toxicity, organism-based; settings: salmonella enterica subsp. enterica serovar typhimurium, 1.5 h
Salmonella typhimurium [30] = assay: Mutagenicity against Salmonella typhimurium TA98 assessed as revertants at 3 uM incubated for 90 mins followed by drug washout measured after 2 days relative to positive control; assay type: toxicity, organism-based; settings: salmonella enterica subsp. enterica serovar typhimurium, 1.5 h
Heart [31] = assay: Cardiotoxicity against Sprague-Dawley rat Langendorff perfused heart assessed as cycle length time at 10 uM by electrophysiological analysis (reference value: 258.62 8.87 ms); assay type: toxicity, tissue-based
Salmonella typhimurium [32] = assay: Mutagenicity against Salmonella typhimurium TA98 assessed as revertants at 12 uM incubated for 90 mins followed by drug washout measured after 2 days relative to positive control; assay type: toxicity, organism-based; settings: salmonella enterica subsp. enterica serovar typhimurium
Plasmodium berghei [33] = assay: Antimalarial activity against Plasmodium berghei ANKA expressing GFP infected in mouse assessed as mean survival days at 30 mg/kg, po administered QD for 3 days (reference value: 6 to 7 days); assay type: functional
Heart [34] = assay: Cardiotoxicity against Sprague-Dawley rat Langendorff perfused heart assessed as heart rate at 30 uM by electrophysiological analysis (reference value: 236.68 7.83 bpm); assay type: toxicity, tissue-based

Question: Which results are given for `Clc1ccc(C(Nc2ccnc3cc(Cl)ccc23)c2ccc(CN3CCNCC3)cc2)cc1` (racemic)?
Answer: Time (Heart [1]): 42.38 ms; Activity (Plasmodium berghei [2]): inactive; CC50 at 24 h [3]: 1800 nM; IC50 [4]: 9500 nM; Activity (Heart [5]): Dose-dependent effect; Time (Heart [6]): 145.15 ms; Activity (Salmonella typhimurium [7]): 4%; IC50 (Plasmodium falciparum [8]): 17 nM; Time (Heart [9]): 94.5 ms; Time (Heart [10]): 260.13 ms; CL/F [11]: 82 mL/min/kg; Time (Heart [12]): 22.67 ms; Time (Heart [13]): 74 ms; Time (Heart [14]): 317 ms; inhibition [15]: Active; Activity (Heart [16]): Toxic; Activity (Plasmodium berghei [17]): Active; Activity (Salmonella typhimurium [18]): 27%; inhibition [19]: Dose-dependent effect; Time (Heart [20]): 256.97 ms; half-life [21]: 22 h; IC50 (Plasmodium falciparum [22]): 62 nM; Time (Heart [23]): 75.67 ms; Time (Heart [24]): 168.83 ms; Activity (Plasmodium berghei [25]): inactive; half-life [26]: 29 h; MSD (Plasmodium berghei [27]): 15.8 days; blood plasma ratio [28]: 1.9; Activity (Salmonella typhimurium [29]): 2%; Activity (Salmonella typhimurium [30]): 4%; Time (Heart [31]): 294 ms; Activity (Salmonella typhimurium [32]): 4%; MSD (Plasmodium berghei [33]): 29 days; Activity (Heart [34]): 116.31 bpm
